According to patent publication US9522920B2, “Bromodomain inhibitors and uses thereof” (Constellation Pharmaceuticals, Inc., priority 2010, dated 2016):
pIC50: −log10 of the molar value. Read-outs that look alike come from different tables or passages of the source.

Assays:
[1] = biological target: T1, BRD4(BD1) (Homo sapiens, UniProt O60885); test: BRD4 AlphaLisa binding assay (Alphascreen)
T1 construct: His; made in house
Experimental: Specifically, in a 384 well ProxiPlate BRD4(BD1) (30 nM final) was combined with peptide (200 nM final) in 40 mM HEPES (pH 7.0), 40 mM NaCl, 1 mM DTT, 0.01% (w/v) BSA, and 0.008% (w/v) Brij-35 either in the presence of DMSO (final 1.2% DMSO) or compound dilution series in DMSO. After 20 minute incubation at room temperature Alpha streptavidin donor beads and AlphaLisa anti-Flag acceptor beads were added to a final concentration of 10 ug/mL each. After three hours equilibration plates were read on an Envision instrument and IC50s calculated using a four parameter non-linear curve fit.

[2] = tested on: IL-6 secretion; test: Cell-based IL-6 quantification assay (ELISA, Mesoscale) in LPS-stimulated THP-1 cells; conditions: Homo sapiens, THP-1, 16 h, read-out: IL6
Experimental: 100,000 THP-1 cells were seeded in RPMI1640-10% FBS in 96-well plates. LPS (E. Coli Invitrogen) in RPMI-10% FBS at a final concentration of 4 μg/mL was added to the wells and the cells are then incubated in the presence of various concentrations of compounds for 16 h. Plates are spun ([…], 5 min), an aliquot of 25 uL supernatant is transferred in to an ELISA plate (Mesoscale technology, MSD) and the detection of IL-6 is performed using manufacturer's instructions. The amount of cells in each well is assessed using CellTiter-Glo® (Promega). The ratio of ELISA value/CellTiter-Glo value is used to calculate the percent of inhibition of IL-6 secretion.

[3] = Table 6, BRD4(BD1) 30 nM, H4-tetraacetyl peptide 200 nM, read-out: BRD4 Alphascreen IC50
[4] = Table 7, THP-1 cells, LPS 4 μg/mL, 16 h, normalised to CellTiter-Glo
[5] = Table 14, BRD4 AlphaLisa Binding Assay, read-out: Alpha screen

| SMILES | pIC50 [1, 3] | pIC50 [2, 4] | further results |
| --- | --- | --- | --- |
| Cc1noc2c1-c1sc(C)c(C)c1C(c1ccnnc1)=NC2CC(N)=O (stereo not drawn) [Compound 104] | 6.00 to 6.30 | 6.00 to 6.30 |  |
| Cc1noc2c1-c1sc(C)c(C)c1C(c1cncnc1)=NC2CC(N)=O (stereo not drawn) [Compound 105] | < 6.00 | < 6.00 |  |
| Cc1noc2c1-c1sc(C)c(C)c1C(N1CCN(C)CC1)=NC2CC(N)=O (stereo not drawn) [Compound 121] | < 6.00 | < 6.00 |  |
| Cc1noc2c1-c1sc(C)c(C)c1C(N1CCOCC1)=NC2CC(N)=O (stereo not drawn) [Compound 122] | < 6.00 | < 6.00 |  |
| Cc1noc2c1-c1sc(C)c(C)c1C(N1CCCN(C)CC1)=NC2CC(N)=O (stereo not drawn) [Compound 123] | < 6.00 | < 6.00 |  |
| Cc1noc2c1-c1sc(C)c(C)c1C(C1CC1)=NC2CC(N)=O (stereo not drawn) [Compound 125] | < 6.00 | < 6.00 |  |
| Cc1noc2c1-c1sc(C)c(C)c1C(Cc1ccccc1)=N[C@H]2CC(N)=O [Compound 127, 2-((6S)-4-benzyl-2,3,9-trimethyl-6H-isoxazolo[5,4-c]thieno[2,3-e]azepin-6-yl)acetamide] | < 6.00 | < 6.00 |  |
| Cc1onc2c1-c1ccccc1C(c1ccc(Cl)cc1)=NC2O (stereo not drawn) [Compound 153, 6-(4-chlorophenyl)-1-methyl-4H-benzo[c]isoxazolo[4,3-e]azepin-4-ol] | < 6.00 | < 6.00 |  |
| Cc1onc2c1-c1ccccc1C(c1ccc(Cl)cc1)=NC2N (stereo not drawn) [Compound 154, 6-(4-chlorophenyl)-1-methyl-4H-benzo[c]isoxazolo[4,3-e]azepin-4-amine] | < 6.00 | < 6.00 |  |
| CCNC(=O)C[C@H]1N=C(c2ccc(Cl)cc2)c2c(sc(C)c2C)-c2c(C)noc21 [Compound 167, 2-((6R)-4-(4-chlorophenyl)-2,3,9-trimethyl-6H-isoxazolo[4,5-e]thieno[3,2-c]azepin-6-yl)-N-ethylacetamide] |  |  | pIC50 ([1]; BRD4 Alphascreen IC50, Table 6, BRD4(BD1) 30 nM, H4-tetraacetyl peptide 200 nM): < 6.00 |
| Cc1noc2c1-c1sc(C)c(C)c1C(C1CCOCC1)=N[C@H]2CC(N)=O [Compound 168, 2-((6S)-2,3,9-trimethyl-4-(tetrahydro-2H-pyran-4-yl)-6H-isoxazolo[5,4-c]thieno[2,3-e]azepin-6-yl)acetamide] | < 6.00 | < 6.00 |  |
| Cc1noc2c1-c1ccnc(F)c1C(c1ccc(Cl)cc1)=NC2 [Compound 169, 6-(4-Chlorophenyl)-7-fluoro-1-methyl-4H-isoxazolo[5,4-c]pyrido[4,3-e]azepine] | < 6.00 | < 6.00 |  |
| Cc1noc2c1-c1ccnc(OC(C)C)c1C(c1ccc(Cl)cc1)=NC2 [Compound 171, 6-(4-Chlorophenyl)-7-isopropoxy-1-methyl-4H-isoxazolo[5,4-c]pyrido[4,3-e]azepine] | < 6.00 |  | pIC50 [2]: < 6.00 |
| Cc1noc2c1-c1cc[nH]c(=O)c1C(c1ccc(Cl)cc1)=NC2 [Compound 176, 6-(4-Chlorophenyl)-1-methyl-4H-isoxazolo[5,4-c]pyrido[4,3-e]azepin-7(8H)-one] | < 6.00 | < 6.00 |  |
| Cc1noc2c1-c1ccn(C)c(=O)c1C(c1ccc(Cl)cc1)=NC2 [Compound 177, 6-(4-Chlorophenyl)-1,8-dimethyl-4H-isoxazolo[5,4-c]pyrido[4,3-e]azepin-7(8H)-one] | < 6.00 | < 6.00 |  |
| Cc1noc2c1-c1ccn(-c3ccc(C#N)cc3)c(=O)c1C(c1ccc(Cl)cc1)=NC2 [Compound 178, 4-(6-(4-Chlorophenyl)-1-methyl-7-oxo-4H-isoxazolo[5,4-c]pyrido[4,3-e]azepin-8(7H)-yl)benzonitrile] | < 6.00 | < 6.00 |  |
| Cc1noc2c1-c1ccn(-c3ccccc3)c(=O)c1C(c1ccc(Cl)cc1)=NC2 [Compound 179, 6-(4-Chlorophenyl)-1-methyl-8-phenyl-4H-isoxazolo[5,4-c]pyrido[4,3-e]azepin-7(8H)-one] | < 6.00 | < 6.00 |  |
| CCNC(=O)C[C@H]1N=C(c2ccc(Cl)cc2)c2ccccc2-c2c1noc2C [Compound 189, 2-((4R)-6-(4-chlorophenyl)-1-methyl-4H-benzo[c]isoxazolo[4,3-e]azepin-4-yl)-N-ethylacetamide] | < 6.00 |  |  |
| Cc1onc2c1-c1ccccc1C(c1ccc(Cl)cc1)=NC2 [Compound 191, 6-(4-chlorophenyl)-1-methyl-4H-benzo[c]isoxazolo[4,3-e]azepine] | < 6.00 |  |  |
| CNc1cc2c(cn1)-c1c(C)noc1CN=C2c1ccc(Cl)cc1 [Compound 258, 6-(4-Chlorophenyl)-N,1-dimethyl-4H-isoxazolo[5,4-c]pyrido[3,4-e]azepin-8-amine] |  |  | pIC50 [1, 5]: > 6.30 |
| Cc1noc2c1-c1cn(C)nc1C(c1ccc(Cl)cc1)=NC2 [Compound 265, 6-(4-chlorophenyl)-1,8-dimethyl-4,8-dihydroisoxazolo[5,4-c]pyrazolo[4,3-e]azepine] |  |  | pIC50 ([2]; Table 14, THP-1 cells, LPS, 16 h): < 6.00 |
| CCNC(=O)NC1N=C(c2ccc(OC(F)(F)F)cc2)c2ccccc2-c2c(C)noc21 (stereo not drawn) [compound 259] |  |  | pIC50 [1, 5]: > 6.30 |
| CCNC(=O)NC1N=C(c2ccc(F)cc2)c2ccccc2-c2c(C)noc21 (stereo not drawn) [compound 260] |  |  | pIC50 [1, 5]: > 6.30 |

Now from value to molecule, other results behind:

| pIC50 [1, 3] | SMILES | pIC50 [2, 4] | further results |
| --- | --- | --- | --- |
| > 6.30 | Cc1noc2c1-c1sc(C)c(C)c1C(c1cc[nH]n1)=NC2CC(N)=O (stereo not drawn) [Compound 100] | 6.00 to 6.30 |  |
| > 6.30 | Cc1noc2c1-c1sc(C)c(C)c1C(c1ccn(C)n1)=NC2CC(N)=O (stereo not drawn) [Compound 101] | 6.00 to 6.30 |  |
| > 6.30 | Cc1noc2c1-c1sc(C)c(C)c1C(c1cccnc1)=NC2CC(N)=O (stereo not drawn) [Compound 106] | > 6.30 |  |
| > 6.30 | Cc1noc2c1-c1sc(C)c(C)c1C(c1ccncc1)=NC2CC(N)=O (stereo not drawn) [Compound 107] | > 6.30 |  |
| > 6.30 | Cc1noc2c1-c1sc(C)c(C)c1C(c1ccccc1Cl)=NC2CC(N)=O (stereo not drawn) [Compound 111] | > 6.30 |  |
| > 6.30 | Cc1noc2c1-c1sc(C)c(C)c1C(c1cccc(C(N)=O)c1)=NC2CC(N)=O (stereo not drawn) [Compound 117] | > 6.30 |  |
| > 6.30 | Cc1noc2c1-c1sc(C)c(C)c1C(c1ccn(C)c(=O)c1)=NC2CC(N)=O (stereo not drawn) [Compound 119] | 6.00 to 6.30 |  |
| > 6.30 | Cc1cc(Cl)ccc1C1=NC(CC(N)=O)c2onc(C)c2-c2ccccc21 (stereo not drawn) [Compound 151] | > 6.30 |  |
| > 6.30 | Cc1onc2c1-c1ccccc1C(c1ccc(Cl)cc1)=NC2C (stereo not drawn) [Compound 156, 6-(4-chlorophenyl)-1,4-dimethyl-4H-benzo[c]isoxazolo[4,3-e]azepine] | < 6.00 |  |
| > 6.30 | CCOC(=O)C[C@@H]1N=C(c2ccc(Cl)cc2)c2ccccc2-c2c1noc2C [Compound 162, Ethyl 2-((4S)-6-(4-chlorophenyl)-1-methyl-4H-benzo[c]isoxazolo[4,3-e]azepin-4-yl)acetate] | < 6.00 |  |
| > 6.30 | COc1nccc2c1C(c1ccc(Cl)cc1)=NCc1onc(C)c1-2 [Compound 170, 6-(4-Chlorophenyl)-7-methoxy-1-methyl-4H-isoxazolo[5,4-c]pyrido[4,3-e]azepine] | < 6.00 |  |
| > 6.30 | CC(=O)NC[C@@H]1N=C(c2ccc(Cl)cc2)c2c(sc(C)c2C)-c2c(C)noc21 [Compound 182, N-(((6S)-4-(4-Chlorophenyl)-2,3,9-trimethyl-6H-isoxazolo[5,4-c]thieno[2,3-e]azepin-6-yl)methyl)acetamide] | 6.00 to 6.30 |  |
